Experimental data from patent US12187707B2, “Pharmaceutical formulations of N-(2-(2-(dimethylamino)ethoxy)-4-methoxy-5-((4-(1-methyl-1H-indol-3-yl)pyrimidin-2-yl)amino)phenyl)acrylaminde and salts thereof” (Beta Pharma, Inc., priority 2017, dated 2025).

Assay: Stability testing of Formulation 1 and 1·Ms by HPLC (assay and total related substances) after storage in a stability chamber
Format: physicochemical
Experimental: Microcrystalline cellulose (392.43 mg), dicalcium phosphate (735.35 mg), sodium starch glycolate (45.09 mg), silicon dioxide (15.03 mg), and magnesium stearate (15.03 mg) were combined and blended with a vortex mixer in the amounts and proportions indicated in Table 1. The resulting mixture was filtered through a #35 mesh sieve to give Mixture A. A 20.05 mg portion of Mixture A was combined with 5.0 mg of 1·Ms (C27H30N6O3·1.06 CH3SO3H, purity=100%) of crystalline Form 2A in a 40 mL glass vial and blended thoroughly with a vortex mixer to afford Formulation 1, which has a theoretical composition as calculated in Table 1.
All samples were stored in a stability chamber at temperatures of −20° C., 50° C., and at 40° C./75% relative humidity for 2-week and 4-week periods and analyzed for stability. Closed-dish samples were capped and sealed with Parafilm. Open-dish samples were covered by aluminum foil that was pierced with a pinhole.
After reaching room temperature, each sample was added to a 40 mL sample vial containing 10 mL of diluent (0.05% TFA in H2O:MeCN=1:1 v/v) and sonicated for 10 minutes with occasional shaking. All samples were centrifuged at 14,000 rpm for 10 minutes and the supernatant was analyzed by HPLC. The working standard solution (5 mg of 1 Ms in 10 mL of diluent) was used as a reference. Results for Formulation 1 are shown in Table 3, in which purity is measured as percent (%) versus total related substances (TRS). As shown in […] and FIGS. 7 to 9, Formulation 1 was stable over an extended period.

[1] = 40° C. @ 75% relative humidity, 2 weeks
[2] = 40° C. @ 75% relative humidity, 4 weeks

C=CC(=O)Nc1cc(Nc2nccc(-c3cn(C)c4ccccc34)n2)c(OC)cc1OCCN(C)C [1 · Ms, N-(2-(2-(Dimethylamino)ethoxy)-4-methoxy-5-((4-(1-methyl-1H-indol-3-yl)pyrimidin-2-yl)amino)phenyl)acrylamide methanesulfonate (1:1)]
Assay [1]: 101.1% | TRS (total related substances) [1]: 0.00% | Assay [2]: 99.3% | TRS (total related substances) [2]: 0.00% | Assay (50° C., 2 weeks): 101.4% | TRS (total related substances) (50° C., 2 weeks): 0.00% | Assay (50° C., 4 weeks): 99.9% | TRS (total related substances) (50° C., 4 weeks): 0.00% | Assay (Initial): 100.2% | TRS (total related substances) (Initial): 0.00%
